From patent US8557859B2, “Immunomodulatory compositions” (Summit (Wales) Limited, priority 2003, dated 2013)

Experiments:
[1] = system: Dendritic cells; experiment: Induction of IL-12 secretion in dendritic cells (ELISA); assay type: cell-based, BALB/c mice; conditions: dendritic cells; compounds 50 μg/ml and 20 μg/ml, 24 hrs (or 48 hrs)
Description: BALB/c male and female mice bred and maintained at the University of Strathclyde under conventional conditions were used at 8 weeks old.
Bone marrow was obtained from the femurs of mice. The femurs were washed in 70% ethanol and placed in a clean petri dish. Dendritic cell (DC) medium (2.5% granulocyte-macrophage colony-stimulating factor (GM-CSF), 10% […] foetal calf serum, 1% L-glutamine, 1% Penicillin/Streptomycin in RPMI-1640 medium) was injected into the bone marrow of the femur by a pumping action and the cells and medium were collected. 1 ml of the cells in medium was added to a 75 cm^2 flask with 15 mls of DC medium. The flasks were then incubated at 37° C., 5% CO2 to allow DC growth and development. After 5 days an additional 10 mls of DC medium was added.
After 10 days of incubation of bone marrow with GM-CSF, the dendritic cells were harvested. This process was carried out in a tissue culture hood. The contents of the flasks were poured into centrifuge tubes to ensure collection of floating DCs. Approximately 10 mls of cooled phosphate buffered saline (PBS) was added to each empty flask, the flasks gently agitated and the contents collected. […] The collected contents of the flasks were centrifuged for 5 minutes at 200 g and the pellet resuspended in 2 mls of DC medium without GM-CSF. A cell count was then carried out.
Cells were counted using a haemocytometer. Approximately 20 μl of the resuspended cells was pipetted into the chamber of the haemocytometer, the cells were adjusted to the correct cell concentration (approx. 5×10^4, and not less than 1×10^4, per well) and then plated out for assay.
The plates were incubated overnight at 37° C. with 5% CO2 and allowed to settle (harvesting stimulates them). The next day the compounds (50 μg/ml and 20 μg/ml) and controls were added then again incubated at 37° C. with 5% CO2 for 24 hrs (or 48 hrs). Harvesting and addition of the compounds was all done in a hood. The plates were then frozen to kill the cells and once defrosted the supernatant analysed as described below.
Using an enzyme linked immunosorbent assay (ELISA) IL-12 concentration in the supernatants was measured. All reagents used in this assay were from PharMingen. A 96-well flat-bottomed ELISA plate was coated with purified rat anti-mouse IL-12 (p40/p70) MAb (Cat no. 554478) at 2 μg/ml diluted in PBS pH 9.0 at 50 μl/well. The plate was then covered in cling film and incubated at 4° C. Following incubation the plate was washed 3 times in washing buffer and dried. 200 μl of blocking buffer (10% foetal calf serum in PBS pH 7.0) was added to each well then covered in cling film and incubated at 37° C. for 45 minutes. The plate was washed 3 times and dried. Recombinant mouse Il-12 standard was added at 30 μl in duplicate wells, starting at 10 ng/ml then 5, 2.5, 1.25, 0.625, 0.31, 0.156, 0.078, 0.039, 0.020, 0.010, 0.005 ng/ml. Standards were diluted in blocking buffer. The supernatant samples were added in at 50 μl/well. The plate was then covered in cling film and incubated for 2 hours at 37° C. The plate was then washed 4 times, dried and the secondary antibody added.
Biotin labelled anti-mouse IL-12 (p40/p70) MAb (Cat no. 18482D) at 1 μg/ml (diluted in blocking buffer) was added to each well at a volume of 100 μl/well. The plate was covered in cling film and incubated at 37° C. for 1 hour. The plate was then washed 5 times, dried and the conjugate added. Streptavidin-AKP (Cat no. 13043E) at 100 μl/well was added at a dilution of 1/2000 in blocking buffer followed by incubation under cling film at 37° C. for 45 minutes.
The plate was finally washed 6 times, dried and the substrate added. pNPP (Sigma) in glycine buffer at 1 mg/ml was added at 100 μl/well. The plate was then covered in tinfoil, incubated at 37° C. and checked every 30 minutes for a colour change.
The plate was then read at 405 nm using a SPECTRAmax 190 spectrometer.

[2] = system: Spleen cells; experiment: Cytokine modulation in spleen cells: splenocyte IFN-γ production; assay type: cell-based, BALB/c mice; conditions: result in words
Description: BALB/c male and female mice bred and maintained at the University of Strathclyde under conventional conditions were used at varying age.
The mouse spleen was removed aseptically and placed in a sterile petri dish containing 5 mls of complete medium (RPMI, 1% L-Glutamine, 1% Penicillin/Streptomycin and 10% foetal calf serum). Cells suspensions were prepared by using the end of a syringe and grinding the spleen through a wire mesh. The cell suspension was then centrifuged at 1000 rpm for 5 minutes. To remove the erythrocytes, the cell pellet was resuspended in Boyle's solution (Tris 0.17M & Ammonium Chloride 0.16M) and centrifuged again for 5 minutes. The pellet was then washed in medium a further two times, then resuspended in 3 mls medium. A cell count was then carried out.
All spleen cell experiments were carried out in 96-well tissue culture plates. […] Unstimulated wells contained 100 μl of cells and 100 μl of medium. The stimulated wells contained 100 μl of cells plus 50 μl of LPS at 1 μg/ml or 50 μl anti-CD3 at 0.5 μg/ml and 50 μl of medium. The remaining wells contained 100 μl cells, 50 μl of MNLP compound and either 50 μl of anti-CD3 or medium alone.
The appropriate Mabs and standards were used according to the protocol described for IL-12 (described in Example 1, above).

[3] = system: β-D-glucosidase; experiment: Glycosidase inhibition, β-D-glucosidase; assay type: biochemical, Almonds (Prunus sp.); conditions: 1 mg/ml
Description: (§1) All enzymes were purchased from Sigma, as were the appropriate p-nitrophenyl substrates. Assays were carried out in microtitre plates. Enzymes were assayed in 0.1 M citric acid/0.2M di-sodium hydrogen phosphate (McIlvaine) buffers at the optimum pH for the enzyme. All assays were carried out at 20° C. For screening assays the incubation assay consisted of 10 μl of enzyme solution, 10 μl of inhibitor solution (made up in water) and 50 μl of the appropriate 5 mM p-nitrophenyl substrate (3.57 mM final conc.) made up in McIlvaine buffer at the optimum pH for the enzyme.
(§2) The reactions were stopped with 0.4M glycine (pH 10.4) during the exponential phase of the reaction, which was determined at the beginning of the assay using blanks with water, which were incubated for a range of time periods to measure the reaction rate using 5 mM substrate solution. Endpoint absorbances were read at 405 nm with a Biorad microtitre plate reader (Benchmark). Water was substituted for the inhibitors in the blanks.

[4] = system: α-D-glucosidase; experiment: Glycosidase inhibition, α-D-glucosidase (Bacillus); assay type: biochemical, Bacillus stearothermophilus; conditions: 1 mg/ml
Description: as §1, §2

[5] = system: Naringinase; experiment: Glycosidase inhibition, Naringinase; assay type: biochemical, Penecillium decumbens; conditions: 1 mg/ml
Description: as §1, §2

[6] = system: glycosidase; conditions: see U.S. Pat. No. 5,075,457; cited from earlier work
[7] = system: N-acetyl-β-D-glucosaminidase; experiment: Glycosidase inhibition, N-acetyl-β-D-glucosaminidase; assay type: biochemical, Bovine kidney; conditions: 1 mg/ml
Description: as §1, §2

[8] = system: β-D-galactosidase; experiment: Glycosidase inhibition, β-D-galactosidase; assay type: biochemical, Bovine liver; conditions: 1 mg/ml; second galactosidase line
Description: as §1, §2

[9] = Treatment of murine HSV-1 infection: body weight; assay type: in vivo, BALB/c mice; conditions: Group 4: via drinking water 1 mg/ml
[10] = system: HSV-1 (SC16); experiment: Treatment of murine HSV-1 infection: ear pinna thickness; assay type: in vivo, BALB/c mice; conditions: for Ear pinna thickness (mm^−2): Group 4: via drinking water 1 mg/ml

OC[C@H]1NC[C@H](O)[C@@H](O)[C@@H]1O [1-Deoxynojirimycin (DNJ) (21), 1-Deoxynojirimycin]
IL-12 RELEASE [1]: No | IFN-γ secretion/production in splenocytes [2]: inhibited IFN-γ secretion/production in splenocytes

OC[C@H]1[C@@H](O)[C@H](O)[C@H]2[C@@H](O)CCN21 [3,7a-diepialexine (23), 3,7a-diepialexine]
IL-12 RELEASE [1]: No

OC[C@@H]1[C@@H](O)[C@H](O)[C@H]2[C@@H](O)[C@@H](O)CN21 [7-epi-casuarine (11), 7-epi-casuarine]
% inhibition glucosidase [3]: 30% | % inhibition gluc (Bacillus) [4]: 5% | % inhibition Naringinase [5]: −4% | IL-12 RELEASE [1]: Yes

OC[C@@H]1[C@@H](O)[C@H](O)[C@H]2[C@@H](O)CCN21 [7-epialexine (22), 7-epialexine]
IL-12 RELEASE [1]: No

O[C@H]1[C@H]2[C@@H](O)CCN2C[C@H]1O [7S-epimer (6)]
glycosidase inhibitory activity relative to swainsonine [6]: much weaker inhibitory activity relative to swainsonine itself

O[C@H]1[C@H]2[C@H](O)CCN2C[C@H]1O [(1S,2R,7R,7aR)-1,2,7-trihydroxypyrrolizidine]
glycosidase inhibitory activity relative to swainsonine [6]: much weaker inhibitory activity relative to swainsonine itself

OC[C@@H]1[C@@H](O)[C@H](O)[C@@H]2[C@@H](O)CCN21 [Alexine (1), Alexine]
IL-12 RELEASE [1]: No

OC[C@H]1[C@@H](O)[C@H](O)[C@H]2[C@@H](O)[C@H](O)CN21 [Compound 12, 3,6,7-triepi-casuarine]
% inhibition N-acetyl-β-gluc [7]: 19% | % inhibition glucosidase [3]: 6% | % inhibition gluc (Bacillus) [4]: 9% | % inhibition Naringinase [5]: 0% | % inhibition galactosidase [8]: 6%

OC[C@H]1[C@@H](O)[C@H](O)[C@@H]2[C@@H](O)[C@H](O)CN21 [Compound 21, 3,6,7,7a-tetraepi-casuarine]
% inhibition N-acetyl-β-gluc [7]: 27% | % inhibition glucosidase [3]: 44% | % inhibition gluc (Bacillus) [4]: −2% | % inhibition Naringinase [5]: 5% | % inhibition galactosidase [8]: 3%

OC[C@H]1[C@@H](O)[C@H](O)[C@@H]2[C@@H](O)[C@@H](O)CN21 [Compound 22, 3,7,7a-triepi-casuarine]
% inhibition gluc (Bacillus) [4]: 87% | % inhibition Naringinase [5]: 10%

OCC1O[C@H](O[C@H]2CN3[C@@H]([C@@H](O)[C@H](O)[C@H]3CO)[C@@H]2O)C(O)[C@@H](O)[C@@H]1O (stereo partly drawn) [casuarine-6-α-D-glucopyranose (9), casuarine-6-α-D-glucopyranose]
IL-12 RELEASE [1]: Yes

CC(=O)OCC(CCn1cnc2cnc(N)nc21)COC(C)=O [famciclovir, reference compound]
Group mean weight ([9]; day 0): 15.1 g | Weight (% change) ([9]; day 0): 9% | Group mean weight ([9]; day 1): 15.6 g | Weight (% change) ([9]; day 1): 13% | Group mean weight ([9]; day 2): 15.8 g | Weight (% change) ([9]; day 2): 14.5% | Group mean weight ([9]; day 3): 16.4 g | Weight (% change) ([9]; day 3): 18.8% | Group mean weight ([9]; day 4): 16.3 g | Weight (% change) ([9]; day 4): 18.1% | Group mean weight ([9]; day 5): 16.7 g | Weight (% change) ([9]; day 5): 21% | Group mean weight ([9]; day 6): 17.1 g | Weight (% change) ([9]; day 6): 23.9% | Group mean weight ([9]; day 7): 16.7 g | Weight (% change) ([9]; day 7): 21% | Group mean weight ([9]; day 8): 17.1 g | Weight (% change) ([9]; day 8): 23.9% | Group mean weight ([9]; day 9): 17.1 g | Group mean weight ([9]; day 10): 17.2 g | Group mean weight ([9]; day 11): 17.1 g | Group mean weight ([9]; day 12): 17.2 g | Group mean weight ([9]; day −2): 13.8 g | Weight (% change) ([9]; day −2): 0% | Ear pinna thickness (mm^−2) ([10]; day 0): 0 mm^−2 | Ear pinna thickness (mm^−2) ([10]; day 1): 0 mm^−2 | Ear pinna thickness (mm^−2) ([10]; day 2): 0 mm^−2 | Ear pinna thickness (mm^−2) ([10]; day 3): 7 mm^−2 | Ear pinna thickness (mm^−2) ([10]; day 4): 7 mm^−2 | Ear pinna thickness (mm^−2) ([10]; day 5): 0 mm^−2 | Ear pinna thickness (mm^−2) ([10]; day 6): 4 mm^−2 | Ear pinna thickness (mm^−2) ([10]; day 7): 0 mm^−2 | Ear pinna thickness (mm^−2) ([10]; day 8): 2.9 mm^−2 | Ear pinna thickness (mm^−2) ([10]; day 9): 2.9 mm^−2 | Ear pinna thickness (mm^−2) ([10]; day 11): 2.9 mm^−2 | Ear pinna thickness (mm^−2) ([10]; day −2): 0 mm^−2 | ear thickness response ([10]; result in words, casuarine at both doses (15 and 150 mg/kg i.p.), famciclovir via drinking water 1 mg/ml): almost completely negated the ear thickness response
